Test results: US20110082130A1 (LIGAND PHARMACEUTICALS, INC., priority 2006, published 2011)

Target: T1, chimeric human H3 receptor (Homo sapiens, UniProt Q9Y5N1)
T1 construct: made in house; host or cells: Sf9 insect cells (baculovirus); P2 membrane preparation
Assay: Chimeric human H3 receptor GTP binding assay (agonist-stimulated GTP-gamma35S binding, Example 7)
Type: biochemical
Conditions: Table II "Ki", symbol *; assay of Example 7
Summary of the method: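 Sf9 membranes co-expressing chimeric human H3 receptor and heterotrimeric G-protein, 35 μg/tube, in pH 7.4 Tris buffer with 10 μM GDP. Test compounds (10^−10–10^−6 M) competed against 1 μM histamine, […] GTP-gamma35S, 60 min at room temperature. Filter-bound radioactivity counted; IC50 converted to Ki by Cheng-Prusoff. Agonism/inverse agonism tested without histamine (EC50).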

T1 sequence (Q9Y5N1 with tags, fused parts or gaps): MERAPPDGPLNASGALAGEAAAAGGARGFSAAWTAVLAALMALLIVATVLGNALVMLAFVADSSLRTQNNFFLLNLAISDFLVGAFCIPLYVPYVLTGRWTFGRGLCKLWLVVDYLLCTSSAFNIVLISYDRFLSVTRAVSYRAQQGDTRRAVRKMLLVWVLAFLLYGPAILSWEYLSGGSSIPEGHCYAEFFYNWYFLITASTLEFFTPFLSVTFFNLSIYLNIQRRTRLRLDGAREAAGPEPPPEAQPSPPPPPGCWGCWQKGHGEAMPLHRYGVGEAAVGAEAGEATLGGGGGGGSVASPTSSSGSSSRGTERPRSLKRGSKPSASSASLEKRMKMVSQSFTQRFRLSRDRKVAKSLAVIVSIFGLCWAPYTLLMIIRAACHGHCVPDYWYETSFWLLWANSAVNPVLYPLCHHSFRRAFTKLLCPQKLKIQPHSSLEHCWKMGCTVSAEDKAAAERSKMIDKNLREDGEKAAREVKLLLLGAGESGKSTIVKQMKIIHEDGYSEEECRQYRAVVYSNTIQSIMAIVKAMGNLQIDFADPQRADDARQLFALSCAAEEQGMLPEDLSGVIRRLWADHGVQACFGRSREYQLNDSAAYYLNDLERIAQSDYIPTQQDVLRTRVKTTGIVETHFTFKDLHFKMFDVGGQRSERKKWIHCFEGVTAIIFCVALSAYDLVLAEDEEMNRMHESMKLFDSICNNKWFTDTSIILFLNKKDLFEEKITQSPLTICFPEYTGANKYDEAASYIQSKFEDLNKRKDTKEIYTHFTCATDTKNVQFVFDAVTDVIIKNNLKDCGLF

Row | Compound | Ki [nM]
1 | CN(C)CCc1ccccc1-c1ccc2c(c1)CCN(CC(=O)N1CCN(C3CCC3)CC1)C2 [Compound 643, 2-(2-{2-[2-(4-cyclobutylpiperazin-1-yl)-2-oxoethyl]-1,2,3,4-tetrahydroisoquinolin-6-yl}phenyl)-N,N-dimethylethanamine] | < 1000
2 | CN(C)CCc1cccc(-c2ccc3c(c2)CCN(CC(=O)N2CCN(C4CCC4)CC2)C3)c1 [Compound 644, 2-(3-{2-[2-(4-cyclobutylpiperazin-1-yl)-2-oxoethyl]-1,2,3,4-tetrahydroisoquinolin-6-yl}phenyl)-N,N-dimethylethanamine] | < 1000
3 | CN(C)CCc1ccc(-c2ccc3c(c2)CCN(CC(=O)N2CCN(C4CCC4)CC2)C3)cc1 [Compound 645, 2-(4-{2-[2-(4-cyclobutylpiperazin-1-yl)-2-oxoethyl]-1,2,3,4-tetrahydroisoquinolin-6-yl}phenyl)-N,N-dimethylethanamine] | < 1000
4 | COCc1ccc(-c2ccc3c(c2)CCN(CC(=O)N2CCN(C4CCC4)CC2)C3)nc1 [Compound 646, 2-[2-(4-cyclobutylpiperazin-1-yl)-2-oxoethyl]-6-[5-(methoxymethyl)pyridin-2-yl]-1,2,3,4-tetrahydroisoquinoline] | < 1000
5 | CC(C)c1ccc(-c2ccc3c(c2)CCN(CC(=O)N2CCN(C4CCC4)CC2)C3)nc1 [Compound 647, 2-[2-(4-cyclobutylpiperazin-1-yl)-2-oxoethyl]-6-(5-isopropylpyridin-2-yl)-1,2,3,4-tetrahydroisoquinoline] | < 1000
6 | O=C(CN1CCc2cc(-c3ccc(C(F)(F)F)nc3)ccc2C1)N1CCN(C2CCC2)CC1 [Compound 648, 2-[2-(4-cyclobutylpiperazin-1-yl)-2-oxoethyl]-6-[6-(trifluoromethyl)pyridin-3-yl]-1,2,3,4-tetrahydroisoquinoline] | < 1000
7 | CC(C)c1ccc(-c2ccc3c(c2)CCN(CC(=O)N2CCN(C4CCC4)CC2)C3)cn1 [Compound 649, 2-[2-(4-cyclobutylpiperazin-1-yl)-2-oxoethyl]-6-(6-isopropylpyridin-3-yl)-1,2,3,4-tetrahydroisoquinoline] | < 1000
8 | O=C(CN1CCc2nc(NCC3CC3)ccc2C1)N1CCN(C2CCC2)CC1 [Compound 650, 6-[2-(4-cyclobutylpiperazin-1-yl)-2-oxoethyl]-N-(cyclopropylmethyl)-5,6,7,8-tetrahydro-1,6-naphthyridin-2-amine] | < 1000
9 | CC(C)CNc1ccc2c(n1)CCN(CC(=O)N1CCN(C3CCC3)CC1)C2 [Compound 651, 6-[2-(4-cyclobutylpiperazin-1-yl)-2-oxoethyl]-N-isobutyl-5,6,7,8-tetrahydro-1,6-naphthyridin-2-amine] | < 1000
10 | CC(C)CCNc1ccc2c(n1)CCN(CC(=O)N1CCN(C3CCC3)CC1)C2 [Compound 652, 6-[2-(4-cyclobutylpiperazin-1-yl)-2-oxoethyl]-N-(3-methylbutyl)-5,6,7,8-tetrahydro-1,6-naphthyridin-2-amine] | < 1000
11 | O=C1CCCN1CCCNc1ccc2c(n1)CCN(CC(=O)N1CCN(C3CCC3)CC1)C2 [Compound 653, 1-[3-({6-[2-(4-cyclobutylpiperazin-1-yl)-2-oxoethyl]-5,6,7,8-tetrahydro-1,6-naphthyridin-2-yl}amino)propyl] pyrrolidin-2-one] | < 1000
12 | O=C(CN1CCc2nc(NC3CCC3)ccc2C1)N1CCN(C2CCC2)CC1 [Compound 654, N-cyclobutyl-6-[2-(4-cyclobutylpiperazin-1-yl)-2-oxoethyl]-5,6,7,8-tetrahydro-1,6-naphthyridin-2-amine] | < 1000
13 | CCC(C)Nc1ccc2c(n1)CCN(CC(=O)N1CCN(C3CCC3)CC1)C2 (stereo not shown) [Compound 655, N-sec-butyl-6-[2-(4-cyclobutylpiperazin-1-yl)-2-oxoethyl]-5,6,7,8-tetrahydro-1,6-naphthyridin-2-amine] | < 1000
14 | O=C(CN1CCc2nc(NC3CCCC3)ccc2C1)N1CCN(C2CCC2)CC1 [Compound 656, 6-[2-(4-cyclobutylpiperazin-1-yl)-2-oxoethyl]-N-cyclopentyl-5,6,7,8-tetrahydro-1,6-naphthyridin-2-amine] | < 1000
15 | CCCC(C)Nc1ccc2c(n1)CCN(CC(=O)N1CCN(C3CCC3)CC1)C2 (stereo not shown) [Compound 657, 6-[2-(4-cyclobutylpiperazin-1-yl)-2-oxoethyl]-N-(1-methylbutyl)-5,6,7,8-tetrahydro-1,6-naphthyridin-2-amine] | < 1000
16 | O=C(CN1CCc2nc(NC3CCCCC3)ccc2C1)N1CCN(C2CCC2)CC1 [Compound 658, 6-[2-(4-cyclobutylpiperazin-1-yl)-2-oxoethyl]-N-cyclohexyl-5,6,7,8-tetrahydro-1,6-naphthyridin-2-amine] | < 1000

The next lines start with the values.

Row | Ki [nM] | Compound
17 | < 1000 | O=C(CN1CCc2cc(-c3ccc4ccccc4n3)ccc2C1)N1CCN(C2CCC2)CC1 [Compound 634, 2-{2-[2-(4-cyclobutylpiperazin-1-yl)-2-oxoethyl]-1,2,3,4-tetrahydroisoquinolin-6-yl}quinoline]
18 | < 1000 | COc1cc(-c2ccc3c(c2)CCN(CC(=O)N2CCN(C4CCC4)CC2)C3)nc(OC)n1 [Compound 635, 2-[2-(4-cyclobutylpiperazin-1-yl)-2-oxoethyl]-6-(2,6-dimethoxypyrimidin-4-yl)-1,2,3,4-tetrahydroisoquinoline]
19 | < 1000 | O=C(CN1CCc2cc(-c3nccc(C(F)(F)F)n3)ccc2C1)N1CCN(C2CCC2)CC1 [Compound 636, 2-[2-(4-cyclobutylpiperazin-1-yl)-2-oxoethyl]-6-[4-(trifluoromethyl)pyrimidin-2-yl]-1,2,3,4-tetrahydroisoquinoline]
20 | < 1000 | O=C(CN1CCc2cc(-c3nccc4ccccc34)ccc2C1)N1CCN(C2CCC2)CC1 [Compound 637, 2′-[2-(4-cyclobutylpiperazin-1-yl)-2-oxoethyl]-1′,2′,3′,4′-tetrahydro-1,6′-biisoquinoline]
21 | < 1000 | O=C(CN1CCc2cc(-c3cnc4ccccc4c3)ccc2C1)N1CCN(C2CCC2)CC1 [Compound 638, 3-{2-[2-(4-cyclobutylpiperazin-1-yl)-2-oxoethyl]-1,2,3,4-tetrahydroisoquinolin-6-yl}quinoline]
22 | < 1000 | O=C(CN1CCc2cc(-c3cccc4[nH]ccc34)ccc2C1)N1CCN(C2CCC2)CC1 [Compound 639, 2-[2-(4-cyclobutylpiperazin-1-yl)-2-oxoethyl]-6-(1H-indol-4-yl)-1,2,3,4-tetrahydroisoquinoline]
23 | < 1000 | CN(C)Cc1ccccc1-c1ccc2c(c1)CCN(CC(=O)N1CCN(C3CCC3)CC1)C2 [Compound 640, 1-(2-{2-[2-(4-cyclobutylpiperazin-1-yl)-2-oxoethyl]-1,2,3,4-tetrahydroisoquinolin-6-yl}phenyl)-N,N-dimethylmethanamine]
24 | < 1000 | CN(C)Cc1cccc(-c2ccc3c(c2)CCN(CC(=O)N2CCN(C4CCC4)CC2)C3)c1 [Compound 641, 1-(3-{2-[2-(4-cyclobutylpiperazin-1-yl)-2-oxoethyl]-1,2,3,4-tetrahydroisoquinolin-6-yl}phenyl)-N,N-dimethylmethanamine]
25 | < 1000 | CN(C)Cc1ccc(-c2ccc3c(c2)CCN(CC(=O)N2CCN(C4CCC4)CC2)C3)cc1 [Compound 642, 1-(4-{2-[2-(4-cyclobutylpiperazin-1-yl)-2-oxoethyl]-1,2,3,4-tetrahydroisoquinolin-6-yl}phenyl)-N,N-dimethylmethanamine]
